Experimental findings from PMC8298602, “14-3-3-protein regulates Nedd4-2 by modulating interactions between HECT and WW domains” (Communications Biology, 2021) are described below.

The subject of assay [1] is all human 14-3-3 protein isoforms. In words: fluorescence polarization (FP), all seven 14-3-3 isoforms (results in words). The settings on record: 50 nM FITC-labelled peptide, 14-3-3 isoforms from 80 μM. It counts as binding. As to the method: Fig. 4 14-3-3 isoform binding specificity of Nedd4-2 phosphomotifs. Binding of FITC-labeled phosphopeptides with 14-3-3 binding motifs of Nedd4-2 (pSer^342, pThr^367 or pSer^448) to all human 14-3-3 isoforms was characterized by FP titrations. The binding affinities of these peptides were determined by fitting FP data to a one-site binding model. The corresponding sequences of these peptides are shown at the top. Background polarization was subtracted from all values. Results are expressed as mean ± SD (n = 3). Error bars are not visible if they are smaller than the size of the symbol.
The FP assay was performed using a CLARIOstar microplate reader (BMG Labtech, […]) on 384-well black low-volume flat-bottom plates (Corning, New York, USA) in a buffer containing 10 mM HEPES (pH 7.4), 150 mM NaCl, 0.1% (v/v) Tween 20 and 0.1% (w/v) BSA. […] The excitation and emission wavelengths were 482 nm and 530 nm, respectively. The KD values were determined as the mean of three independent measurements using GraphPad Prism version 8.0.1 for Windows, GraphPad Software, La Jolla California USA, www.graphpad.com.
(§1) Results from the FP assay (Fig. 4) and immunoblot (Supplementary Fig. S1) are represented as means ± SD from three replicates as indicated in the figure legend. Statistical analysis for the data from immunoblot were performed using Graph-Pad Prism 8.4. Student’s t-test was used for comparison of relative changes of samples with and without 14-3-3η at selected timepoints (ns, non-significant P > 0.05; *, P < 0.05).
In general terms: Fluorescence polarisation rises when a labelled molecule tumbles more slowly, as on binding a larger partner.

A further assay deals with Nedd4-2^186–975. In words: auto-ubiquitination (Ub chain formation) assay, immunoblot. It counts as biochemical, human. The note with it: for Difference (no 14-3-3 minus with 14-3-3): normalized means; for effect on auto-ubiquitination of Nedd4-2^186–975 (in words): Nedd4-2^186–975 with 14-3-3, 1:2 molar ratio, 30 °C. As to the method: For in vitro ubiquitination assays, 5 µg of human Ub, 50 ng of E1 (mouse Uba1), 200 ng of E2 (mouse Ube2d2) and 500 ng of E3 (phosphorylated Nedd4-2^186–975) were incubated in 30 µl of the reaction mixture in a buffer containing 50 mM Tris pH 7.5, 2 mM ATP, 5 mM MgCl2 and 2 mM DTT and incubated for 5, 10 and 15 min at 30 °C. The reactions were stopped by adding 5 × SDS-PAGE loading buffer (250 mM Tris pH 6.8, 50% glycerol, 500 mM DTT and 10% SDS) and incubating at 95 °C for 3 minutes to denaturate the samples. For reactions with 14-3-3η, Nedd4-2^186–975 was mixed with 14-3-3η in a 1:2 molar ratio and incubated for 30 minutes on ice before starting the reaction. In addition, 20 µl of reaction was separated by conventional SDS-PAGE on a 10% acrylamide gel and electro-blotted against a PVDF membrane in 20 mM Tris pH 7.5, 154 mM glycin and 10% methanol buffer overnight at 4 °C. Rabbit anti-Ub polyclonal antibody (Enzo) and anti-rabbit IgG, HRP-linked Antibody (Cell Signaling Technology) were used to visualize the transferred polyubiquitin chains. Chemiluminescence was induced by ECL and detected using Fusion Solo S (Vilber). The detected bands of E3-Ub were quantitated using the Image Lab software (Bio-Rad).
as §1
Supplementary Fig. S1. 14-3-3 slows down the auto-ubiquitination of Nedd4- 2186-975. a Purity and integrity of the samples used in the Ub chain formation assay. The samples were resolved by 10% Tris/Glycine SDS-PAGE and stained with Coomassie G-250. b Ubiquitin (Ub) chain formation assay with and without 14-3-3ε and the representative immunoblot of Ub. Black rectangles denote the borders of the sample zones that were quantified. The presence of ubiquitinated Nedd4-2 in the quantified zones was confirmed by LC-MS analysis. c Relative abundances of ubiquitinated Nedd4-2186-975 with and without 14-3-3η based on the immunoblot of Ub. Error bars represent the standard deviation of three independent experiments. Results show the data distribution. Asterisks represent significant differences according to unpaired Student’s t-tests comparing relative change between samples without and with 14-3-3ε at selected timepoints (ns, non-significant P > 0.05; *, P < 0.05).
(1 picture or pasted object on this page, not shown here)
Background: In western blotting, separated proteins are transferred to a membrane and probed.

Consider FITC-ARSSpTVTGGE [pep-T367], for which, in assay [1], the “binding to 14-3-3 isoforms (in words)” value is “very weak, to all 14-3-3 isoforms except ε and σ”.
For the substance FITC-PRSLpSSPTVT [pep-S342], the “binding to 14-3-3 isoforms (in words)” value in assay [1] is “measurable binding affinity only to 14-3-3σ”.
As to “14-3-3η: 14-3-3 protein eta isoform, stable dimer, known Nedd4-2 binding partner”, the “Difference (no 14-3-3 minus with 14-3-3)” value in the assay on Nedd4-2^186–975 (5 min) was determined as 0.1757; with Nedd4-2^186–975 (10 min), 0.2602; in the assay with Nedd4-2^186–975 (15 min), 0.2943. The “relative abundance of ubiquitinated Nedd4-2^186–975” value (shortened to “relative abundance”) with Nedd4-2^186–975 (5 min, with 14-3-3, mean of n = 3, normalized (mean without 14-3-3 = 1), listed as 14-3-3) came to 0.8243; in the assay on Nedd4-2^186–975 (5 min, with 14-3-3, mean of n = 3, normalized (mean without 14-3-3 = 1), listed as 1433), 0.8243; in the assay on Nedd4-2^186–975 (5 min, with 14-3-3, replicate 1, normalized (mean without 14-3-3 = 1)), 0.8139; in the assay with Nedd4-2^186–975 (5 min, with 14-3-3, replicate 2, normalized (mean without 14-3-3 = 1)), 1.075; in the assay with Nedd4-2^186–975 (5 min, with 14-3-3, replicate 3, normalized (mean without 14-3-3 = 1)), 0.5843; with Nedd4-2^186–975 (10 min, with 14-3-3, mean of n = 3, normalized (mean without 14-3-3 = 1), listed as 14-3-3), 0.7398. Further, the “relative abundance” value was 0.7398 in the assay with Nedd4-2^186–975 (10 min, with 14-3-3, mean of n = 3, normalized (mean without 14-3-3 = 1), listed as 1433); 0.713 with Nedd4-2^186–975 (10 min, with 14-3-3, replicate 1, normalized (mean without 14-3-3 = 1)); 0.8702 in the assay on Nedd4-2^186–975 (10 min, with 14-3-3, replicate 2, normalized (mean without 14-3-3 = 1)); 0.6363 in the assay with Nedd4-2^186–975 (10 min, with 14-3-3, replicate 3, normalized (mean without 14-3-3 = 1)); 0.7057 in the assay with Nedd4-2^186–975 (15 min, with 14-3-3, mean of n = 3, normalized (mean without 14-3-3 = 1), listed as 14-3-3); 0.7057 in the assay on Nedd4-2^186–975 (15 min, with 14-3-3, mean of n = 3, normalized (mean without 14-3-3 = 1), listed as 1433). For the same substance, the “relative abundance” value in the assay on Nedd4-2^186–975 (15 min, with 14-3-3, replicate 1, normalized (mean without 14-3-3 = 1)) is 0.7206; in the assay with Nedd4-2^186–975 (15 min, with 14-3-3, replicate 2, normalized (mean without 14-3-3 = 1)) it was 0.776; in the assay on Nedd4-2^186–975 (15 min, with 14-3-3, replicate 3, normalized (mean without 14-3-3 = 1)), 0.6205. The “abundance of ubiquitinated Nedd4-2^186–975” value with Nedd4-2^186–975 (5 min, with 14-3-3, mean of n = 3, not normalized) came out at 1.509; with Nedd4-2^186–975 (5 min, with 14-3-3, replicate 1, not normalized), 1.49; with Nedd4-2^186–975 (5 min, with 14-3-3, replicate 2, not normalized), 1.967; in the assay with Nedd4-2^186–975 (5 min, with 14-3-3, replicate 3, not normalized), 1.069; with Nedd4-2^186–975 (10 min, with 14-3-3, mean of n = 3, not normalized) it was 2.393; in the assay on Nedd4-2^186–975 (10 min, with 14-3-3, replicate 1, not normalized) it was 2.306. The “abundance of ubiquitinated Nedd4-2^186–975” value in the assay on Nedd4-2^186–975 (10 min, with 14-3-3, replicate 2, not normalized) is 2.814; in the assay on Nedd4-2^186–975 (10 min, with 14-3-3, replicate 3, not normalized), 2.058; with Nedd4-2^186–975 (15 min, with 14-3-3, mean of n = 3, not normalized), 3.153; in the assay on Nedd4-2^186–975 (15 min, with 14-3-3, replicate 1, not normalized), 3.22; with Nedd4-2^186–975 (15 min, with 14-3-3, replicate 2, not normalized), 3.467; in the assay on Nedd4-2^186–975 (15 min, with 14-3-3, replicate 3, not normalized) it was 2.772. The results for the “effect on auto-ubiquitination of Nedd4-2^186–975 (in words)” value with Nedd4-2^186–975 and with Nedd4-2^186–975 (listed as 14-3-3) were “reduced” and “slows down”, respectively.
Turning to FITC-LRSCpSVTDAV [pep-S448], the “binding to 14-3-3 isoforms (in words)” value in assay [1] is listed as “binds to all 14-3-3 isoforms in the low micromolar range”.
